Laboratory results as given in patent US10941137B2, “Difluoromethyl-phenyl triazoles” (Boehringer Ingelheim International GmbH, priority 2018, dated 2021).

How the values were obtained:
[1] = Metabolic stability in human liver microsomes (Human MST); format: in vitro ADME; conditions: pooled human liver microsomes, pH 7.6; human liver microsomes 1 mg/mL, 1 μM compound, NADPH 1 mM, 37° C.; read-out: Human MST t1/2
Method: Assessment of Metabolic Stability in Human Liver Microsomes (Human MST) The metabolic stability of the compounds according to the invention may be investigated as follows: The metabolic degradation of the test compound is assayed at 37° C. with pooled human liver microsomes. The final incubation volume of 100 μL per time point contains TRIS buffer pH 7.6 at room temperature (0.1 M), MgCl2 (5 mM), microsomal protein (1 mg/mL) and the test compound at a final concentration of 1 μM. Following a short pre-incubation period at 37° C., the reactions are initiated by addition of beta-nicotinamide adenine dinucleotide phosphate, reduced form (NADPH, 1 mM), and terminated by transferring an aliquot into solvent after different time points. After centrifugation (10000 g, 5 min), an aliquot of the supernatant is assayed by LCMS/MS for the amount of parent compound. The half-life (t½) is determined by the slope of the semi-logarithmic plot of the concentration-time profile.

[2] = molecular target: T1, human GABAA α5β3γ2s receptor (Homo sapiens, UniProt P18507+P31644); assay: Assay A: in vitro inhibition of 3H-flumazenil binding, HEK cells expressing human GABAA α5β3γ2s receptor; conditions: 3H-flumazenil 1 nM, HEK-293 membranes, 40 min at 2° C.; Ki from IC50 by Cheng and Prusoff
T1 sequence (P18507 1-475): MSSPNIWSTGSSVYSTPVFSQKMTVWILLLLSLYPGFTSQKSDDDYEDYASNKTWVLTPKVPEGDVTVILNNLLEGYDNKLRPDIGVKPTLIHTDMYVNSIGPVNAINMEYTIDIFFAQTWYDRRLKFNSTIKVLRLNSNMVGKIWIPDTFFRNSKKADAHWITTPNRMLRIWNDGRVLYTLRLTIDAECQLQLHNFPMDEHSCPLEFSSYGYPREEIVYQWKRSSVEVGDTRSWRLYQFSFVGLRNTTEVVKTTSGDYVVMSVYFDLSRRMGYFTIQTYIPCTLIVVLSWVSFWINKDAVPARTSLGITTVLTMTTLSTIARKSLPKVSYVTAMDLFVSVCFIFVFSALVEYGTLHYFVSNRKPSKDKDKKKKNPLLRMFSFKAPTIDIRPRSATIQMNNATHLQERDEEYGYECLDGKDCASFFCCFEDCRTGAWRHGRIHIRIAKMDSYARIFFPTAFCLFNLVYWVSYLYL
T1 sequence (P31644 1-462): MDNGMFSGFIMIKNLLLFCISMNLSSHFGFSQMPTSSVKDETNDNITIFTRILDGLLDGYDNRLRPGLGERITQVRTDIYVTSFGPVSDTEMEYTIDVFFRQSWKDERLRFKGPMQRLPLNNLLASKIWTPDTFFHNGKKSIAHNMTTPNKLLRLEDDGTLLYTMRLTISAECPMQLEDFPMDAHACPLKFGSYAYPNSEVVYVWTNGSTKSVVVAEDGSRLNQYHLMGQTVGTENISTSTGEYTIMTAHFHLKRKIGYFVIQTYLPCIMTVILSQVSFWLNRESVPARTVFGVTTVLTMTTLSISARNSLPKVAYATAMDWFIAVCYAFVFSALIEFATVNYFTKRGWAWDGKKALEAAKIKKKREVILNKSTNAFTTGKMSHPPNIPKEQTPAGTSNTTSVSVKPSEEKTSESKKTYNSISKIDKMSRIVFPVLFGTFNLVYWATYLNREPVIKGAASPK
Method: HEK-293 cell lines with stable expression of recombinant human GABAA α5β3γ2s receptors (plasmid H46/E9/B10) are seeded in T175 polystyrene flasks or roller bottles (1700 cm^2, Fisher Scientific CCI-431191), and cultured (37 C, 5% CO˜) in Dulbecco's Modified Eagle Medium (DMEM) with GlutaMAX™ supplemented with 10% fetal bovine serum and one or both of the following antibiotics: hygromycin B ([…]; γ2 subunit) or G418 (0.5 mg/ml; […]).
When the cultures reach confluency, the DMEM is removed and the cells are washed (10 ml for T175 flasks; 50 ml for roller bottles) once in Dulbecco's Phosphate Buffered Saline (DPBS). Following addition of DPBS to the cultures (10 ml for T175 flasks; 100 ml for roller bottles) for approximately 5 min cells are easily detached from the surface by shaking or tapping the flask gently. The cell suspension is transferred to Falcon tubes and centrifuged at 23,500×g for 10 min at 2° C. The pellet is washed once in 15 ml Tris-citrate buffer (50 mM, pH 7.1) using an Ultra-Turrax homogenizer and centrifuged at 2° C. for 10 min at 27,000×g. The washed pellet is re-suspended in 15 ml Tris-citrate buffer and frozen at −80° C. until the day of the binding experiment.
On the day of the experiment the cell membrane preparation is thawed and centrifuged at 2° C. for 10 min at 27,000×g. The pellet is re-suspended, using an Ultra-Turrax homogenizer in Tris-citrate buffer, to 15-50 µg protein per assay and then used for binding assays.
Non-specific binding is determined using clonazepam (1 μM, final concentration).
All dilutions of test compounds and incubation of assay are performed in glass vials/96-vial plates. […] Compounds are dissolved in 100% DMSO (10 mM stock), diluted in 48% ethanol-water, and tested in triplicate in serial 1:3 or 1:10 dilutions. When screening large numbers of compounds only one concentration of each compound is tested in single wells. Reference compounds are not included routinely, but for each experiment performed total and nonspecific binding is compared to data obtained during validation of the assay.
Binding is either terminated by rapid filtration onto
1) Whatman GF/C glass fibre filters using a Brandel Cell harvester, followed by 5 washes with 1 ml ice-cold buffer or onto 2) UniFilter GF/C glass fibre filter plates using a Tomtec cell harvester, followed by washing with approximately 5 ml ice-cold buffer.
The amount of radioactivity on the filters is determined by conventional liquid scintillation counting using a
1) Tri-Garb™ counter (PerkinElmer Life and Analytical Sciences) for separate large filters or
2) Topcount™ counter (PerkinElmer Life and Analytical Sciences) for 96-well filter plates. Specific binding is total binding minus non-specific binding.
For screening purposes n is set to 1. The IC50 value is calculated from the concentration response curves by the non-linear regression method using the curve-fitting program GraphPad Prism. […]

| Structure (SMILES) | half-life at 1 μM [1] | Ki [2] |
| --- | --- | --- |
| Cc1n[nH]c(C)c1-c1ccc(OCc2c(C)nnn2-c2ccc(C(F)F)cc2)nn1 [Example 12, 3-({1-[4-(difluoromethyl)phenyl]-4-methyl-1H-1,2,3-triazol-5-yl}methoxy)-6-(3,5-dimethyl-1H-pyrazol-4-yl)pyridazine] | 0.417 h | 0.9 nM |
| COc1ncc(-c2ccc(OCc3c(C)nnn3-c3ccc(C(F)F)cc3)nn2)cn1 [Example 3] |  | 0.16 nM |
| Cc1nnn(-c2ccc(C(F)F)cc2)c1COc1ccc(-n2ccc(C(F)(F)F)n2)nn1 [Example 24] | 0.517 h | 0.25 nM |
| Cc1nnn(-c2ccc(C(F)F)cc2)c1COc1ccc(-n2cnc(C=O)c2)nn1 [Example 17] | 0.167 h | 0.089 nM |
| Cc1nnn(-c2ccc(C(F)F)cc2)c1COc1ccc(-n2cnc(C[N+](C)(C)C)c2)nn1.O=C([O-])C(F)(F)F [Example 36, ({1-[6-({1-[4-(difluoromethyl)phenyl]-4-methyl-1H-1,2,3-triazol-5-yl}methoxy)pyridazin-3-yl]-1H-imidazol-4-yl}methyl)trimethylazanium trifluoroacetate] | > 2.17 h | 0.12 nM |
| Cc1nnn(-c2ccc(C(F)F)cc2)c1COc1ccc(-n2cnc(C(F)F)c2)nn1 [Example 15] | > 2.17 h | 0.11 nM |
| Cc1nnn(-c2ccc(C(F)F)cc2)c1COc1ccc(-n2cnc(S(C)(=O)=O)c2)nn1 [Example 19] | > 2.17 h | 0.38 nM |
| Cc1nnn(-c2ccc(C(F)F)cc2)c1COc1ccc(-n2ccc(C#N)n2)nn1 [Example 20] |  | 0.009 nM |
| Cc1nnn(-c2ccc(C(F)F)cc2)c1COc1ccc(-c2cnn(C3CC3)c2)nn1 [Example 9] | > 2.17 h | 0.25 nM |
| Cc1nnn(-c2ccc(C(F)F)cc2)c1COc1ccc(-c2cncnc2)nn1 [Example 22] | > 2.17 h | 0.11 nM |
| Cc1cc(-c2ccc(OCc3c(C)nnn3-c3ccc(C(F)F)cc3)nn2)cnn1 [Example 11] | > 2.17 h | 0.058 nM |
| Cc1nnn(-c2ccc(C(F)F)cc2)c1COc1ccc(-c2cnc(OCC(C)(C)O)nc2)nn1 [Example 4] | > 2.17 h | 0.87 nM |
| CCn1cc(-c2ccc(OCc3c(C)nnn3-c3ccc(C(F)F)cc3)nn2)cn1 [Example 7] |  | 0.032 nM |
| Cc1ncc(-c2ccc(OCc3c(C)nnn3-c3ccc(C(F)F)cc3)nn2)o1 [Example 6] | > 2.17 h | 0.11 nM |
| Cc1nnn(-c2ccc(C(F)F)cc2)c1COc1ccc(-n2cnc(Cl)c2)nn1 [Example 18] | > 2.17 h | 0.056 nM |
| CNC(=O)c1cn(-c2ccc(OCc3c(C)nnn3-c3ccc(C(F)F)cc3)nn2)cn1 [Example 14] | > 2.17 h | 0.071 nM |
| Cc1nnn(-c2ccc(C(F)F)cc2)c1COc1ccc(-c2cncc(-n3ccnc3)c2)nn1 [Example 8] | 1.22 h | 0.055 nM |
| Cc1nnn(-c2ccc(C(F)F)cc2)c1COc1ccc(-c2cnn(C)c2)nn1 [Example 5] | > 2.17 h | 0.11 nM |

The remaining lines, values ahead:

| half-life at 1 μM [1] | Ki [2] | Structure (SMILES) |
| --- | --- | --- |
| > 2.17 h | 0.057 nM | Cc1nnn(-c2ccc(C(F)F)cc2)c1COc1ccc(-n2cnc(CN)c2)nn1 [Example 35, {1-[6-({1-[4-(difluoromethyl)phenyl]-4-methyl-1H-1,2,3-triazol-5-yl}methoxy)pyridazin-3-yl]-1H-imidazol-4-yl}methanamine] |
| > 2.17 h | 0.21 nM | Cc1nnn(-c2ccc(C(F)F)cc2)c1COc1ccc(-n2cc(C#N)cn2)nn1 [Example 31] |
| > 2.17 h | 0.036 nM | Cc1nnn(-c2ccc(C(F)F)cc2)c1COc1ccc(-n2cnc(C(N)=O)c2)nn1 [Example 27, 1-[6-({1-[4-(difluoromethyl)phenyl]-4-methyl-1H-1,2,3-triazol-5-yl}methoxy)pyridazin-3-yl]-1H-imidazole-4-carboxamide] |
| > 2.17 h | 0.2 nM | Cc1nnn(-c2ccc(C(F)F)cc2)c1COc1ccc(-n2cnc(CO)c2)nn1 [Example 38, {1-[6-({1-[4-(difluoromethyl)phenyl]-4-methyl-1H-1,2,3-triazol-5-yl}methoxy)pyridazin-3-yl]-1H-imidazol-4-yl}methanol] |
| > 2.17 h | 0.16 nM | Cc1nnn(-c2ccc(C(F)F)cc2)c1COc1ccc(-n2cnc(C(C)O)c2)nn1 (stereo not drawn) [Example 40] |
| > 2.17 h | 0.12 nM | Cc1nnn(-c2ccc(C(F)F)cc2)c1COc1ccc(-n2cc3c(n2)CCNC3=O)nn1 [Example 26] |
| > 2.17 h | 0.14 nM | Cc1nnn(-c2ccc(C(F)F)cc2)c1COc1ccc(-n2cnc(C(C)(C)O)c2)nn1 [Example 39, 2-{1-[6-({1-[4-(difluoromethyl)phenyl]-4-methyl-1H-1,2,3-triazol-5-yl}methoxy)pyridazin-3-yl]-1H-imidazol-4-yl}propan-2-ol] |
| > 2.17 h | 0.039 nM | CC(=O)c1cn(-c2ccc(OCc3c(C)nnn3-c3ccc(C(F)F)cc3)nn2)cn1 [Example 32] |
| 0.433 h | 0.063 nM | COC(=O)c1cn(-c2ccc(OCc3c(C)nnn3-c3ccc(C(F)F)cc3)nn2)cn1 [Example 29] |
| > 2.17 h | 0.35 nM | Cc1nnn(-c2ccc(C(F)F)cc2)c1COc1ccc(-n2cc(C(F)(F)F)cn2)nn1 [Example 25] |
| > 2.17 h | 0.81 nM | Cc1nnn(-c2ccc(C(F)F)cc2)c1COc1ccc(-n2cnc(C(=O)O)c2)nn1 [Example 37, 1-[6-({1-[4-(difluoromethyl)phenyl]-4-methyl-1H-1,2,3-triazol-5-yl}methoxy)pyridazin-3-yl]-1H-imidazole-4-carboxylic acid] |
| > 2.17 h | 0.163 nM | Cc1ncn(-c2ccc(OCc3c(C)nnn3-c3ccc(C(F)F)cc3)nn2)n1 [Example 33] |
